US6924304B2, “Cell proliferation inhibitors” (Abbott Laboratories, priority 1999, dated 2005)
Structures can show the parent of a compound that is named as a salt.

Tests used:
[1] = tested on: human lung large cell carcinoma, MDR negative (NCI-H460) cells; test: 48-hour cellular proliferation assay (sulforhodamine staining), NCI-H460 cells; format: cell-based; conditions: 10^−4 M compound; for inhibition at 100 µM: Homo sapiens, read-out: NCI-460 % inhibition at 10^−4 M
Protocol: (§1) Compounds of this invention were tested in a 48-hour cellular proliferation assay which uses human colon adenocarcinoma, MDR positive (HCT-15) cells, and human lung large cell carcinoma, MDR negative (NCI-H460) cells, in the 96-well microtitre format described in Skehan P., et al. New Colorimetric Cytotoxicity Assay for Anticancer Drug Screening. 1990, J. Natl. Cancer Inst. 82:1107-1112, hereby incorporated by reference. Briefly, the wells of a microtitre plate were charged sequentially with cultured cells and compounds of the invention (1.0×10^−4 to 1.0×10^−11 M in 10% DMSO prepared by dissolving compounds of the invention in DMSO and adding 11 μL of the DMSO solution to 100 μL of culture medium for a final DMSO concentration of 10%). Two of the following controls were also present in each microtitre plate: a solvent (DMSO) control without drug that yielded a 0% inhibition level and a trichloroacetic acid-treated well that yielded a 100% inhibition level. The cells were grown in culture (37° C., 5% CO2 atmosphere) for 48 hours then fixed by the addition of trichloroacetic acid. The wells were stained with sulforhodamine, washed with 1% acetic acid, and treated with 0.01 M tris buffer (100 μL) to solubilize the adherent dye. The absorbance of the dye solution was measured with a Molecular Devices SpectraMax340 plate reader. The percent inhibition values were obtained by calculating the proportional response of the experimental values to the absorbance values of the controls.

[2] = tested on: human colon adenocarcinoma, MDR positive (HCT-15) cells; test: 48-hour cellular proliferation assay (sulforhodamine staining), HCT-15 cells; format: cell-based; conditions: 10^−4 M compound, HCT-15 cells (MDR positive); for inhibition at 100 µM: Homo sapiens
Protocol: as §1

`COc1cc(N(C(=O)[C@@H](N)Cc2cnc[nH]2)S(=O)(=O)c2ccc3c(ccn3C)c2)cc(OC)c1OC` [Example 76, N-((2S)-2-amino-3-(1H-imidazol-5-yl)propanoyl)-1-methyl-N-(3,4,5-trimethoxyphenyl)-1H-indole-5-sulfonamide] showed a melting point of 175 to 177 °C.

For `COc1cc(N(C(=O)CN(C)C)S(=O)(=O)c2ccc3c(ccn3C)c2)cc(OC)c1OC` (as salt: salt) [Example 67, N-((dimethylamino)acetyl)-1-methyl-N-(3,4,5-trimethoxyphenyl)-1H-indole-5-sulfonamide], the melting point was 200 to 203 °C.

Compound `COc1ccc(C[S+]([O-])c2cc(OC)c(OC)c(OC)c2)cc1N` (stereo not shown) [Example 90, 2-methoxy-5-(((3,4,5-trimethoxyphenyl)sulfinyl)methyl)aniline] has an inhibition at 100 µM [1] of 99.8% and an inhibition at 100 µM [2] of 99.5%.

With `COc1ccc(NS(=O)(=O)c2cc(OC)c(OC)c(OC)c2)cc1` [Example 21, 3,4,5-trimethoxy-N-(4-methoxyphenyl)benenesulfonamide] the “NCI-460 % inhibition at 10^−4 M” value [1] was 96.0% and the “HCT-15 % inhibition at 10^−4 M” value [2] was 97.8%.

`COc1ccc(S(=O)(=O)Oc2cc(OC)c(OC)c(OC)c2)cc1N` [Example 43, (3,4,5-trimethoxyphenyl) 3-amino-4-methoxybenzenesulfonate] gave an inhibition at 100 µM [1] of 100% and an inhibition at 100 µM [2] of 100%.

In the case of `COc1cc(S(=O)(=O)N(C)c2ccc3c(ccn3C)c2)cc(OC)c1OC` [Example 37, 3,4,5-trimethoxy-N-methyl-N-(1-methyl-1H-indol-5-yl)benzenesulfonamide], the inhibition at 100 µM [1] is reported as 100% and the inhibition at 100 µM [2] is reported as 99.9%.

Compound `COc1ccc(CS(=O)(=O)c2cc(OC)c(OC)c(OC)c2)cc1` [Example 87, 1,2,3-trimethoxy-5-((4-methoxybenzyl)sulfonyl)benzene] has a melting point of 95 to 97 °C, an inhibition at 100 µM [1] of 99.6% and an inhibition at 100 µM [2] of 99.9%.

With `COc1ccc(S(=O)(=O)C(C)(C)c2cc(OC)c(OC)c(OC)c2)cc1` [Example 95, 1,2,3-trimethoxy-5-(1-((4-methoxyphenyl)sulfonyl)-1-methylethyl)benzene] the inhibition at 100 µM [1] was 9.1% and the inhibition at 100 µM [2] was 84.8%.

With `COc1cc(S(=O)(=O)Nc2ccc3[nH]ccc3c2)cc(OC)c1OC` [Example 31, N-(1H-indol-5-yl)-3,4,5-trimethoxybenzenesulfonamide] the inhibition at 100 µM [1] was 95.1% and the inhibition at 100 µM [2] was 98.6%.

With `COc1ccc(C[S+]([O-])c2cc(OC)c(OC)c(OC)c2)cc1` (stereo not shown) [Example 86, 1,2,3-trimethoxy-5-((4-methoxybenzyl)sulfinyl)benzene] the melting point was 103 to 105 °C, the inhibition at 100 µM [1] was 96.5% and the inhibition at 100 µM [2] was 99.4%.

Compound `COc1ccc(CSc2cc(OC)c(OC)c(OC)c2)cc1` [Example 85, 1,2,3-trimethoxy-5-((4-methoxybenzyl)sulfanyl)benzene] has a melting point of 65 to 67 °C, an inhibition at 100 µM [1] of 99.6% and an inhibition at 100 µM [2] of 99.8%.

Work on `COc1cc(NS(=O)(=O)c2ccc(NC(=O)CCl)cc2)cc(OC)c1OC` [Example 7, 4-((2-chloroacetyl)amino)-N-(3,4,5-trimethoxyphenyl)benzenesulfonamide] yielded an inhibition at 100 µM [1] of 89.2% and an inhibition at 100 µM [2] of 96.7%.

In the case of `COc1cc(OS(=O)(=O)c2ccc(C)cc2)cc(OC)c1OC` [Example 41, (3,4,5-trimethoxyphenyl) 4-methylbenzenesulfonate], the inhibition at 100 µM [1] is reported as 99.5% and the inhibition at 100 µM [2] is reported as 99.8%.

In the case of `COc1ccc(SCc2cc(OC)c(OC)c(OC)c2)cc1` [Example 93, 1,2,3-trimethoxy-5-(((4-methoxyphenyl)sulfanyl)methyl)benzene], the inhibition at 100 µM [1] is reported as 98.6% and the inhibition at 100 µM [2] is reported as 99.9%.

With `COc1cc(S(=O)(=O)Nc2ccc3c(c2)cc(C)n3C)cc(OC)c1OC` [Example 32, N-(1,2-dimethyl-1H-indol-5-yl)-3,4,5-trimethoxybenzenesulfonamide] the inhibition at 100 µM [1] was 99.8% and the inhibition at 100 µM [2] was 99.8%.
